According to US20080039422A1, “Vitamin B12-Containing Compositions and Methods of Use” (Transition Therapeutics Inc., priority 2004, published 2008):

Assays:
Type in all cases: physicochemical
[1] = Time course of CN-Cbl in solution (8 hours, 200 hours)
Description: To establish more precise time courses, ten samples were prepared containing various challenge amounts of CN-Cbl in solutions containing ethanol and propylene glycol. Five of the solutions contained 15% ethanol and 20% propylene glycol and five contained 20% ethanol and 40% propylene glycol. Within each set of five, they were challenged with: (1) 50 mg/ml CN-Cbl; (2) 75 mg/ml CN-Cbl; (3) 100 mg/ml CN-Cbl; (4) 150 mg/ml CN-Cbl; and (5) 200 mg/ml CN-Cbl. To generate the solutions, the methods described above were modified by heating the solutions for 30 consecutive minutes at 60° C., after which time there was no visible precipitate. Samples were also retained within the same tubes for the duration of the study, rather than transferring supernatant fractions to fresh tubes at each time point. The concentrations were recorded eleven times; seven times within the first eight hours following the initial combination and four times over the subsequent 192 hours. The concentrations were measured at 0.5 hours, 1.0 hour, 2.0 hours, 3.0 hours, 4.0 hours, 6.0 hours, 8.0 hours, 24.0 hours, 32.0 hours, 100 hours, and 200 hours. The concentration of CN-Cbl was measured and the percentage of CN-Cbl remaining in solution was calculated.

[2] = Stability of CN-Cbl solutions stored at room temperature (3 days, 2 weeks); settings: After 2 weeks at Room Temperature, ethanol 0%, PG 0% (v/v)
[3] = Effects of temperature of heating solution on long-term stability
Description: To study the effect of temperature, in some experiments, the solutions were heated to only 37° C. for 15 minutes (unless otherwise noted, the solutions were prepared as described above: by heating them to 60° C. for two hours, with additional mixing by vortexing carried out for 5-10 seconds every 5-10 minutes).
The effect of heating the solutions to different temperatures on long-term stability was tested. Solutions challenged with 50 or 75 mg/ml CN-Cbl containing 20% ethanol and 20-40% propylene glycol that were prepared at 60° C. and 37° C. were compared. The concentrations of CN-Cbl in solutions prepared at 60° C. were measured after three days, and the concentrations of CN-Cbl in solutions prepared at 37° C. were measured after two weeks. No significant difference was found in the concentrations of CN-Cbl in these solutions when the challenge amount was 50 mg/ml and only a slight difference when the challenge amount was 75 mg/ml. Solutions challenged with either 50 or 75 mg/ml CN-Cbl and containing ethanol and/or propylene glycol were heated to 37° C. (in which case, the concentration of CN-Cbl was measured after two weeks incubation at room temperature) or 60° C. (in which case, the concentration of CN-Cbl was measured after three days incubation at room temperature). Additional information regarding stability was obtained in the experiments described below.

[4] = Solubility study (saturated solubility of CN-Cbl, 25°C, 16 hours, UV)
From the text: During the solubility study the following were investigated: • cosolvents (mixtures of ethanol and propylene glycol) • in-situ salt formers • surfactants • pH effects • in-situ salt formers and cosolvents Solubility Study Method
Results of CN-Cbl Solubility in Water and Determination of Equilibrium Time

[5] = Ref. FD4068 29A, buffer Sodium citrate, citric acid, Initial pH 2.64
[6] = Ref. FD4068 30A, buffer Sodium citrate, citric acid, Initial pH 4.75
[7] = Ref. FD4068 30B, buffer Disodium hydrogen phosphate, sodium dihydrogen phosphate, Initial pH 7.03

## cyanocobalamin [CN-Cbl]
[1]; challenge 150 and 200 mg/ml, greater in 15% ethanol/20% PG than in 20% ethanol/40% PG
  CN-Cbl in solution over time: some precipitation
[1]; first eight hours (held true over 200 hours), challenge 50, 75 and 100 mg/ml, 15% ethanol/20% PG and 20% ethanol/40% PG
  CN-Cbl in solution over time: remained in solution
[2]; challenge 50 mg/mL
  Conc of CN-Cbl: 11460 µg/mL
[2]; challenge 75 mg/mL
  Conc of CN-Cbl: 12310 µg/mL
[3]; heated to 37 degrees, After 2 weeks at Room Temperature, challenge 50 mg/mL, ethanol 20%, PG 20%
  Conc of CN-Cbl: 47080 µg/mL
[3]; heated to 37 degrees, After 2 weeks at Room Temperature, challenge 50 mg/mL, ethanol 20%, PG 30%
  Conc of CN-Cbl: 49780 µg/mL
[3]; heated to 37 degrees, After 2 weeks at Room Temperature, challenge 50 mg/mL, ethanol 20%, PG 40%
  Conc of CN-Cbl: 49870 µg/mL
[3]; heated to 37 degrees, After 2 weeks at Room Temperature, challenge 75 mg/mL, ethanol 20%, PG 20%
  Conc of CN-Cbl: 38390 µg/mL
[3]; heated to 37 degrees, After 2 weeks at Room Temperature, challenge 75 mg/mL, ethanol 20%, PG 30%
  Conc of CN-Cbl: 59620 µg/mL
[3]; heated to 37 degrees, After 2 weeks at Room Temperature, challenge 75 mg/mL, ethanol 20%, PG 40%
  Conc of CN-Cbl: 75820 µg/mL
[3]; heated to 60 degrees, After 3 days at Room Temperature, challenge 50 mg/mL, ethanol 0%, PG 0%
  Conc of CN-Cbl: 12850 µg/mL
[3]; heated to 60 degrees, After 3 days at Room Temperature, challenge 50 mg/mL, ethanol 20%, PG 0%
  Conc of CN-Cbl: 24410 µg/mL
[3]; heated to 60 degrees, After 3 days at Room Temperature, challenge 50 mg/mL, ethanol 20%, PG 10%
  Conc of CN-Cbl: 32320 µg/mL
[3]; heated to 60 degrees, After 3 days at Room Temperature, challenge 50 mg/mL, ethanol 20%, PG 20%
  Conc of CN-Cbl: 49870 µg/mL
[3]; heated to 60 degrees, After 3 days at Room Temperature, challenge 50 mg/mL, ethanol 20%, PG 30%
  Conc of CN-Cbl: 48330 µg/mL
[3]; heated to 60 degrees, After 3 days at Room Temperature, challenge 50 mg/mL, ethanol 20%, PG 40%
  Conc of CN-Cbl: 50360 µg/mL
[3]; heated to 60 degrees, After 3 days at Room Temperature, challenge 75 mg/mL, ethanol 0%, PG 0%
  Conc of CN-Cbl: 14010 µg/mL
[3]; heated to 60 degrees, After 3 days at Room Temperature, challenge 75 mg/mL, ethanol 20%, PG 0%
  Conc of CN-Cbl: 24410 µg/mL
[3]; heated to 60 degrees, After 3 days at Room Temperature, challenge 75 mg/mL, ethanol 20%, PG 10%
  Conc of CN-Cbl: 30100 µg/mL
[3]; heated to 60 degrees, After 3 days at Room Temperature, challenge 75 mg/mL, ethanol 20%, PG 20%
  Conc of CN-Cbl: 60780 µg/mL
[3]; heated to 60 degrees, After 3 days at Room Temperature, challenge 75 mg/mL, ethanol 20%, PG 30%
  Conc of CN-Cbl: 76600 µg/mL
[3]; heated to 60 degrees, After 3 days at Room Temperature, challenge 75 mg/mL, ethanol 20%, PG 40%
  Conc of CN-Cbl: 74280 µg/mL
[4]; 0.1 M Choline (12.12 mg/ml), Initial pH 12.54
  Saturated Solubility: 29.5 mg/mL
[4]; 0.1 M Diethanolamine (10.51 mg/ml), Initial pH 10.80
  Saturated Solubility: 18.1 mg/mL
[4]; 0.1 M L-arginine (17.42 mg/ml), Initial pH 10.88
  Saturated Solubility: 18.2 mg/mL
[4]; 0.1 M L-lysine (16.42 mg/ml), Initial pH 9.60
  Saturated Solubility: 16.3 mg/mL
[4]; 0.1 M Meglumine (19.52 mg/ml), Initial pH 11.00
  Saturated Solubility: 18.0 mg/mL
[4]; 0.1 M Triethanolamine (14.92 mg/ml), Initial pH 10.13
  Saturated Solubility: 18.6 mg/mL
[4]; 0.1 M Triethylamine (10.12 mg/ml), Initial pH 11.64
  Saturated Solubility: 24.9 mg/mL
[4]; Ref. FD4068 14A, Propylene glycol 30% v/v, Ethanol 5% v/v
  Saturated Solubility: 36.6 mg/mL
[4]; Ref. FD4068 15A, Propylene glycol 32% v/v, Ethanol 5% v/v
  Saturated Solubility: 39.8 mg/mL
[4]; Ref. FD4068 15B, Propylene glycol 34% v/v, Ethanol 5% v/v
  Saturated Solubility: 39.1 mg/mL
[4]; Ref. FD4068 15C, Propylene glycol 36% v/v, Ethanol 5% v/v
  Saturated Solubility: 41.8 mg/mL
[4]; Ref. FD4068 16A, Propylene glycol 38% v/v, Ethanol 5% v/v
  Saturated Solubility: 45.5 mg/mL
[4]; Ref. FD4068 16B, Propylene glycol 40% v/v, Ethanol 5% v/v
  Saturated Solubility: 48.1 mg/mL
[4]; Ref. FD4068 16C, Propylene glycol 30% v/v, Ethanol 10% v/v
  Saturated Solubility: 45.6 mg/mL
[4]; Ref. FD4068 16D, Propylene glycol 32% v/v, Ethanol 10% v/v
  Saturated Solubility: 45.8 mg/mL
[4]; Ref. FD4068 17A, Propylene glycol 34% v/v, Ethanol 10% v/v
  Saturated Solubility: 47.8 mg/mL
[4]; Ref. FD4068 17B, Propylene glycol 36% v/v, Ethanol 10% v/v
  Saturated Solubility: 51.0 mg/mL
[4]; Ref. FD4068 17C, Propylene glycol 38% v/v, Ethanol 10% v/v
  Saturated Solubility: 52.2 mg/mL
[4]; Ref. FD4068 17D, Propylene glycol 40% v/v, Ethanol 10% v/v (no surfactant)
  Saturated Solubility: 53.8 mg/mL
[4]; Ref. FD4068 26A, 5% w/v Polysorbate 80, 40% v/v propylene glycol, 10% v/v ethanol
  Saturated Solubility: 49.0 mg/mL
[4]; Ref. FD4068 26B, 5% w/v Polysorbate 20, 40% v/v propylene glycol, 10% v/v ethanol
  Saturated Solubility: 46.5 mg/mL
[4]; Ref. FD4068 26C, 5% w/v Paloxamer 188, 40% v/v propylene glycol, 10% v/v ethanol
  Saturated Solubility: 45.1 mg/mL
[4]; Ref. FD4068 27A, 5% w/v Cremophor RH40, 40% v/v propylene glycol, 10% v/v ethanol
  Saturated Solubility: 47.1 mg/mL
[4]; [5]
  Saturated Solubility: 15.3 mg/mL
  pH of CN-Cbl Solution: 2.89
[4]; [6]
  Saturated Solubility: 15.0 mg/mL
  pH of CN-Cbl Solution: 4.83
[4]; [7]
  Saturated Solubility: 13.6 mg/mL
  pH of CN-Cbl Solution: 7.02
